Experimental data from patent US20260315562A1, “NOVEL FEED-ADDITIVE COMPOSITION” (KYNTOX BIOTECH INDIA PRIVATE LIMITED, priority 2023, published 2026).

Legend:
[1] = test system: WSSV; experiment: In vivo anti-viral bioassay: survival of freshwater crabs after WSSV challenge; for Animal survival/mortality: key: 0: Represents live animal; 1: Represents Animal Mortality; set-up: species or system P. hydrodromous
Procedure: Positive Control: The term is used herein in reference to disease positive control where only WSSV virus is injected without any antagonist. This positive for the disease expression.
The experimental groups have been divided in seven groups, Group-I-VII as described below:
(§1) Freshwater crabs P. hydrodromous were collected from Padavedu (12.6310070 79.052885°) Vellore, India.
(§2) The animals with a body weight of 20-25 g were transported to the laboratory and maintained at room temperature (25° C.). The crabs were fed twice a day with boiled egg whites. The crabs were kept in the described condition for one week before the experiment.
As described in earlier reports (Natarajan et al., 2017), haemolymph was drawn from WSSV infected shrimp using a 26-gauge syringe through heart puncture. The haemolymph was centrifuged at 3000 rpm for 20 minutes at 4° C. The supernatant was collected and it was centrifuged for 30 minutes at 4° C. and then it was filtered using 0.45p m and stored at −20° C. for further studies. The haemolymph were analyzed via PCR to confirm the presence of WSSV. To amplify the structural VP28 gene, a conventional PCR reaction was set up, which includes […], 5 pmol WSSV-VP28 primer (Table 1), 3 μl PCR-grade water, and 1 μl template DNA (Sundaram et al., 2016; Yoganandhan et al., 2003). The viral titer quantified through real time PCR, was 1.6×10^6 copies μL−1 which served as the stock for this study.
(§3) The anti-viral efficacy of GMVL and saponin-rich extract against WSSV was assessed in the freshwater crab, previously acclimated to laboratory conditions. The crabs were divided into different experimental groups containing 4 crabs per group and the experiment was performed in duplicates. The viral inoculum mixture was injected into the respective group after 3 h of pre-incubation. All the crabs were injected intramuscularly at the second abdominal segment. Briefly, healthy crabs received the injection as given above. The crabs were fed twice a day and observed regularly for gross signs of disease. The experiment was carried out up to several days depending on the survival after challenging with WSSV with/without above mentioned antagonist and mortality was recorded to plot a cumulative mortality graph.

[2] = Safety of test sample in non-infected freshwater crabs (Placebo group); note: key: 0: Represents live animal; 1: Represents Animal Mortality; type: in vivo, P. hydrodromous; settings: GML 5 mg/animal
Procedure: Placebo: The term is used herein in reference to disease negative wherein the highest dose of test molecule has been injected, and evidences for safety of test molecules.
as §1, §2, §3

[3] = test system: white spot syndrome virus (WSSV); settings: dietary supplementation; Qian et al. 2021, Gong et al. 2022; cited from earlier work
[4] = preincubated with WSSV, co-injected (i.m)

Structure (SMILES): CCCCCCCCCCCC(=O)OCC(O)CO (stereo not drawn) [GML, Glycerol monolaurate]
- animal survival time ([1]; 3 mg/animal, preincubated with WSSV, co-injected (i.m)): > 140 h
- time within which all animals in the test groups died post challenging ([1]; 1 and 3 mg/animal, preincubated with WSSV, co-injected (i.m)): ≤ 150 h
- Animal survival/mortality ([1]; GML 1 mg/animal, 0 h): 0
- Animal survival/mortality ([1]; GML 1 mg/animal, 6 h): 0
- Animal survival/mortality ([1]; GML 1 mg/animal, 12 h): 0
- Animal survival/mortality ([1]; GML 1 mg/animal, 24 h): 1
- Animal survival/mortality ([1]; GML 1 mg/animal, 48 h): 0
- Animal survival/mortality ([1]; GML 1 mg/animal, 72 h): 1
- Animal survival/mortality ([1]; GML 1 mg/animal, 96 h): 1
- Animal survival/mortality ([1]; GML 1 mg/animal, 120 h): 1
- Animal survival/mortality ([1]; GML 3 mg/animal, 0 h): 0
- Animal survival/mortality ([1]; GML 3 mg/animal, 6 h): 0
- Animal survival/mortality ([1]; GML 3 mg/animal, 12 h): 0
- Animal survival/mortality ([1]; GML 3 mg/animal, 24 h): 1
- Animal survival/mortality ([1]; GML 3 mg/animal, 48 h): 0
- Animal survival/mortality ([1]; GML 3 mg/animal, 72 h): 1
- Animal survival/mortality ([1]; GML 3 mg/animal, 96 h): 1
- Animal survival/mortality ([1]; GML 3 mg/animal, 120 h): 1
- Animal survival/mortality ([1]; GML 3 mg/animal, 144 h): 1
- mortality (in words) ([1]; alone or in combination): the mortality is significant
- inhibition of the virus [1, 4]: partial inhibition of the virus
- protection of the animal from lethality [1, 4]: could not protect the animal from lethality
- Animal survival/mortality (Placebo) ([2]; 0 h): 0
- Animal survival/mortality (Placebo) ([2]; 6 h): 0
- Animal survival/mortality (Placebo) ([2]; 12 h): 0
- Animal survival/mortality (Placebo) ([2]; 24 h): 0
- Animal survival/mortality (Placebo) ([2]; 48 h): 0
- Animal survival/mortality (Placebo) ([2]; 72 h): 0
- Animal survival/mortality (Placebo) ([2]; 96 h): 0
- Animal survival/mortality (Placebo) ([2]; 120 h): 0
- Animal survival/mortality (Placebo) ([2]; 144 h): 0
- WSSV copy number [3]: reduced the WSSV copy number
- mortality of WSSV-infected crayfish [3]: reduce the mortality
